# Experimental data reported in patent US20140005164A1, “WNT PATHWAY ANTAGONISTS” (Siena Biotech S.p.A., priority 2011, published 2014).
# Read-outs that look alike come from different tables or passages of the source.
# Tested on: Wnt/β-catenin pathway
# Experiment: Wnt reporter assay (TCF-Luciferase, Firefly) in DBTRG-05MG cells
# Assay type: cell-based
# Details: Homo sapiens, read-out: IC50 value in the reporter assay
# Protocol: Three copies of a 4×TCF responsive elements were cloned into the pcDNA3.1/Zeo(+) vector (Invitrogen) after deletion of the constitutive CMV promoter and the insertion of the Firefly Luciferase from Promega (phFL-TK) to measure the activity of the Wnt/β-catenin pathway. The resulting plasmid was sequenced for quality control.
# Cells were grown in 20 μg/ml Zeocin and 20 μg/ml Zeocin plus 30 μg/ml Hygromicin respectively. The cells were plated at a density of 6500 cells/well in poly-D-lysine pre-treated 96 well-plates.
# 36 hours after plating cells were incubated with 8-points dilutions compound (0.6% DMSO (v/v)). Each compound was tested in triplicate in single plate. Luciferase detection was done with Dual-Luciferase Reporter Assay System (Promega). 24 hours after compound addition, media was removed and 30 μl of 1× lysis buffer was added to each well for 30 minutes. To each well 45 μl of Dual-Glo Luciferase reagent (Promega) were added and after 1 second delay Luciferase was detected for 1 second using Mithras LB940 instrument. After Firefly luciferase quantification 45 μl of Dual Stop & Glo reagent (Promega) were added to each well and […] Renilla was detected using the same parameters described before.
# Data were expressed as % of control for Firefly and Renilla luciferase independently; values were calculated using XLFit version 4.2, with a four parameters sigmoid function (XLFit model 205).
# [1] = TCF-Luciferase (Firefly) read out, 24 hours after compound addition, range given with mixed units nM and μM
structure (smiles),measurement,setting,value
"COc1ccc2c(c1)n(C[C@H]1CC[C@H](C(=O)N3CCN(c4cncnc4)CC3)CC1)c(=O)n2C [Example 20, 5-Methoxy-1-methyl-3-[trans-4-(4-pyrimidin-5-yl-piperazine-1-carbonyl)-cyclohexylmethyl]-1,3-dihydro-benzoimidazol-2-one]",IC50,[1],35 to 23000 nM
Cn1c(=O)n(C[C@H]2CC[C@H](C(=O)Nc3ccnc(N4CCOCC4)c3)CC2)c2cccc(Cl)c21 [Example 43],IC50,[1],35 to 23000 nM
Cn1c(=O)n(C[C@H]2CC[C@H](C(=O)N3CCN(c4nccs4)CC3)CC2)c2c(Cl)cccc21 [Example 23],IC50,[1],35 to 23000 nM
"CC(=O)N1CCN(C(=O)[C@H]2CC[C@H](Cn3c(=O)n(C)c4ccc(Br)nc43)CC2)CC1 [Example 3, 3-[trans 4-(4-Acetyl-piperazine-1-carbonyl)cyclohexylmethyl]-5-bromo-1-methyl-1,3-dihydro-imidazo[4,5-b]pyridin-2-one]",IC50,[1],35 to 23000 nM
COc1ccc2c(c1)n(C[C@H]1CC[C@H](C(=O)N3CCN(c4ccc(C)nc4)CC3)CC1)c(=O)n2C [Example 93],IC50,[1],35 to 23000 nM
Cn1cc(-c2nnc([C@H]3CC[C@H](Cn4c(=O)n(C)c5ccc(C#N)cc54)CC3)o2)cn1 [Example 162],IC50,[1],35 to 23000 nM
Cn1ccc(N2CCN(C(=O)[C@H]3CC[C@H](Cn4c(=O)n(C)c5ccc(=O)[nH]c54)CC3)CC2)n1 [Example 134],IC50,[1],35 to 23000 nM
COc1cc(NC(=O)[C@H]2CC[C@H](Cn3c(=O)n(C)c4ccc(Cl)cc43)CC2)ccn1 [Example 52],IC50,[1],35 to 23000 nM
COc1ccc2c(c1)n(C[C@H]1CC[C@H](C(=O)N3CCN(c4cnccn4)CC3)CC1)c(=O)n2C [Example 60],IC50,[1],35 to 23000 nM
COCCOc1ccc2c(c1)n(C[C@H]1CC[C@H](C(=O)N3CCN(c4ccncc4)CC3)CC1)c(=O)n2C [Example 157],IC50,[1],35 to 23000 nM
"Cn1c(=O)n(C[C@H]2CC[C@H](C(=O)Nc3ccnnc3)CC2)c2[nH]c(=O)ccc21 [Example 9, Trans-4-(1-Methyl-2,5-dioxo-1,2,4,5-tetrahydro-imidazo[4,5-b]pyridin-3-ylmethyl)-cyclohexanecarboxylic acid pyridazin-4-ylamide]",IC50,[1],35 to 23000 nM
COc1ccc2c(c1)n(C[C@H]1CC[C@H](C(=O)Nc3cccc4oc(C5CC5)nc34)CC1)c(=O)n2C [Example 67],IC50,[1],35 to 23000 nM
Cn1c(=O)n(C[C@H]2CC[C@H](C(=O)N3CCN(c4nccs4)CC3)CC2)c2cc(Cl)ccc21 [Example 53],IC50,[1],35 to 23000 nM
COC/C=C/c1ccc2c(n1)n(C[C@H]1CC[C@H](C(=O)Nc3ccncc3)CC1)c(=O)n2C [Example 114],IC50,[1],35 to 23000 nM
CCOCc1nnc([C@H]2CC[C@H](Cn3c(=O)n(C)c4ccc(OC)cc43)CC2)o1 [Example 107],IC50,[1],35 to 23000 nM
COc1cc2c(cc1F)n(C)c(=O)n2C[C@H]1CC[C@H](C(=O)N2CCN(c3cnn(C)c3)CC2)CC1 [Example 183],IC50,[1],35 to 23000 nM
Cc1cc(NC(=O)[C@H]2CC[C@H](Cn3c(=O)n(C)c4cc(Cl)ccc43)CC2)ccn1 [Example 48],IC50,[1],35 to 23000 nM
COc1ccc2c(c1)n(C[C@H]1CC[C@H](C(=O)N3CCN(c4nccs4)CC3)CC1)c(=O)n2C [Example 27],IC50,[1],35 to 23000 nM
COc1ccc2c(c1)n(C[C@H]1CC[C@H](C(=O)N3CCC(F)(F)C3)CC1)c(=O)n2C [Example 44],IC50,[1],35 to 23000 nM
COc1ccc2c(c1)n(C[C@H]1CC[C@H](c3nnc(-c4ccncn4)o3)CC1)c(=O)n2C [Example 117],IC50,[1],35 to 23000 nM
"COc1ccc2c(c1)n(C[C@H]1CC[C@H](c3cc(-c4ccncc4)n[nH]3)CC1)c(=O)n2C [Example 13, 5-Methoxy-1-methyl-3-[trans-4-(5-pyridin-4-yl-2H-pyrazol-3-yl)-cyclohexylmethyl]-1,3-dihydro-benzoimidazol-2-one]",IC50,[1],35 to 23000 nM
COc1ccc2c(c1)n(C[C@H]1CC[C@H](c3nnc(-c4ccncc4)o3)CC1)c(=O)n2C [Example 97],IC50,[1],35 to 23000 nM
COc1ccc2c(c1)n(C[C@H]1CC[C@H](C(=O)N3CCC(c4noc(C)n4)CC3)CC1)c(=O)n2C [Example 84],IC50,[1],35 to 23000 nM
Cn1c(=O)n(C[C@H]2CC[C@H](C(=O)Nc3ccncc3)CC2)c2cc(OCCF)ccc21 [Example 137],IC50,[1],35 to 23000 nM
COCCOc1ccc2c(n1)n(C[C@H]1CC[C@H](c3nnc(-c4cnn(C)c4)o3)CC1)c(=O)n2C [Example 180],IC50,[1],35 to 23000 nM
COc1ccc2c(c1)n(C[C@H]1CC[C@H](c3nnc(-c4ccncc4F)o3)CC1)c(=O)n2C [Example 109],IC50,[1],35 to 23000 nM
COc1ccc2c(c1)n(C[C@H]1CC[C@H](C(=O)N3CCC4(CC3)OCCO4)CC1)c(=O)n2C [Example 86],IC50,24 h,35 to 23000 nM
COc1cc2c(cc1F)n(C)c(=O)n2C[C@H]1CC[C@H](C(=O)N2CCN(c3ncccn3)CC2)CC1 [Example 178],IC50,[1],35 to 23000 nM
Cc1cnccc1NC(=O)[C@H]1CC[C@H](Cn2c(=O)n(C)c3ccc(C4CC4)cc32)CC1 [Example 70],IC50,[1],35 to 23000 nM
COc1ccc2c(c1)n(C[C@H]1CC[C@H](C(=O)N3CCN(c4ccncc4)CC3)CC1)c(=O)n2C [Example 76],IC50,[1],35 to 23000 nM
CN(C)c1ccc2c(n1)n(C[C@H]1CC[C@H](C(=O)Nc3ccncc3)CC1)c(=O)n2C [Example 120],IC50,[1],35 to 23000 nM
COc1ccc2c(c1)n(C[C@H]1CC[C@H](C(=O)Nc3ccncc3F)CC1)c(=O)n2C [Example 38],IC50,[1],35 to 23000 nM
COCCNc1ccc2c(n1)n(C[C@H]1CC[C@H](C(=O)Nc3ccncc3)CC1)c(=O)n2C [Example 125],IC50,[1],35 to 23000 nM
COCCOCCOc1ccc2c(c1)n(C[C@H]1CC[C@H](C(=O)Nc3ccncc3)CC1)c(=O)n2C [Example 129],IC50,[1],35 to 23000 nM
CN(C)CC#Cc1ccc2c(n1)n(C[C@H]1CC[C@H](C(=O)Nc3ccncc3)CC1)c(=O)n2C [Example 119],IC50,[1],35 to 23000 nM
COC/C=C/c1ccc2c(c1)n(C[C@H]1CC[C@H](C(=O)Nc3ccncc3)CC1)c(=O)n2C [Example 113],IC50,[1],35 to 23000 nM
COc1cc2c(cc1F)n(C)c(=O)n2C[C@H]1CC[C@H](C(=O)Nc2ccnnc2)CC1 [Example 169],IC50,[1],35 to 23000 nM
"COCCNc1ccc2c(c1)n(C[C@H]1CC[C@H](C(=O)N3CCN(C(C)=O)CC3)CC1)c(=O)n2C [Example 15, 3-[trans-4-(4-Acetyl-piperazine-1-carbonyl)-cyclohexylmethyl]-5-(2-methoxy-ethylamino)-1-methyl-1,3-dihydro-benzoimidazol-2-one]",IC50,[1],35 to 23000 nM
Cn1c(=O)n(C[C@H]2CC[C@H](C(=O)N3CCN(c4ccncc4)CC3)CC2)c2cc(C#N)ccc21 [Example 123],IC50,[1],35 to 23000 nM
Cn1c(=O)n(C[C@H]2CC[C@H](C(=O)N3CCN(c4nccs4)CC3)CC2)c2ccc(Cl)cc21 [Example 54],IC50,[1],35 to 23000 nM
COc1ccc2c(c1)n(C[C@H]1CC[C@H](C(=O)Nc3cncnc3)CC1)c(=O)n2C [Example 103],IC50,[1],35 to 23000 nM
Cn1c(=O)n(C[C@H]2CC[C@H](C(=O)Nc3ccncc3)CC2)c2nc(NCc3ccco3)ccc21 [Example 127],IC50,[1],35 to 23000 nM
Cn1c(=O)n(C[C@H]2CC[C@H](C(=O)Nc3ccncc3)CC2)c2cc(Br)ccc21 [Example 111],IC50,[1],35 to 23000 nM
"CN(C)CCN(C)c1ccc2c(n1)n(C[C@H]1CC[C@H](C(=O)Nc3ccncc3)CC1)c(=O)n2C [Example 5, Trans-4-{5-[(2-Dimethylamino-ethyl)-methyl-amino]-1-methyl-2-oxo-1,2-dihydro-imidazo[4,5-b]pyridin-3-ylmethyl}-cyclohexanecarboxylic acid pyridin-4-ylamide]",IC50,24 h,35 to 23000 nM
COCCOc1ccc2c(n1)n(C[C@H]1CC[C@H](C(=O)N3CCN(c4cnn(C)c4)CC3)CC1)c(=O)n2C [Example 174],IC50,[1],35 to 23000 nM
CC(=O)N1CCN(C(=O)[C@H]2CC[C@H](Cn3c(=O)n(C)c4ccc(CCCC#N)nc43)CC2)CC1 [Example 101],IC50,[1],35 to 23000 nM
COc1ccc2c(c1)n(C[C@H]1CC[C@H](C(=O)N3CCN(c4cnn(C)c4)CC3)CC1)c(=O)n2C [Example 141],IC50,[1],35 to 23000 nM
Cn1c(=O)n(C[C@H]2CC[C@H](C(=O)N3CCN(c4cnccn4)CC3)CC2)c2cc(C#N)ccc21 [Example 155],IC50,[1],35 to 23000 nM
Cn1c(=O)n(C[C@H]2CC[C@H](C(=O)N3CCN(c4ncccn4)CC3)CC2)c2cc(C(F)(F)F)ccc21 [Example 25],IC50,[1],35 to 23000 nM
COc1cc(NC(=O)[C@H]2CC[C@H](Cn3c(=O)n(C)c4c(Cl)cccc43)CC2)ccn1 [Example 58],IC50,[1],35 to 23000 nM
"COc1ccc2c(c1)n(C[C@H]1CC[C@H](C(=O)N3CCN(c4ncccn4)CC3)CC1)c(=O)n2C [Example 2, 5-Methoxy-1-methyl-3-[trans-4-(4-pyrimidin-2-yl-piperazine-1-carbonyl)-cyclohexylmethyl]-1,3-dihydro-benzoimidazol-2-one]",IC50,[1],35 to 23000 nM
COCCOc1ccc2c(n1)n(C[C@H]1CC[C@H](c3nnc(-c4cccnc4)o3)CC1)c(=O)n2C [Example 181],IC50,[1],35 to 23000 nM
COc1ccc2c(c1)n(C[C@H]1CC[C@H](C(=O)N3CC4CCC(C3)O4)CC1)c(=O)n2C [Example 63],IC50,[1],35 to 23000 nM
COc1ccc2c(c1)n(C[C@H]1CC[C@H](C(=O)N3[C@H](C)CCC[C@@H]3C)CC1)c(=O)n2C [Example 59],IC50,[1],35 to 23000 nM
Cc1cc(NC(=O)[C@H]2CC[C@H](Cn3c(=O)n(C)c4c(Cl)cccc43)CC2)ccn1 [Example 49],IC50,[1],35 to 23000 nM
COc1ccc2c(c1)n(C[C@H]1CC[C@H](C(=O)Nc3ccnc(Cl)c3)CC1)c(=O)n2C [Example 32],IC50,[1],35 to 23000 nM
